In article PMC9548544, “Population pharmacokinetic model of vancomycin in postoperative neurosurgical patients” (Frontiers in Pharmacology, 2022):

How the values were obtained:
[1] = Population pharmacokinetic (NLME, one-compartment) model of vancomycin in postoperative neurosurgical patients
Protocol: The data of patients who received vancomycin therapy from October 2018 to March 2022 in Beijing Tiantan Hospital, Capital Medical University were retrospectively collected. Inclusion criteria were: 1) age ≥18 years; 2) therapeutic drug monitoring was performed during treatment and at least 1 vancomycin concentration was obtained. Exclusion criteria were: 1) pregnant women ([Lin et al., 2021]); 2) cystic fibrosis ([Jing et al., 2020]).
(§1) The dosage regimen of vancomycin is adjusted by the clinicians according to the patient’s conditions and renal function, including 1 g Qd, 1 g Q12h, 1 g Q8h, 0.5 g Qd, 0.5 g Q12h, 0.5 g Q8h and 0.5 g Q6h. The infusion time cannot be accurately obtained, but 1 h infusion was most used in clinical applications, so the default infusion time in this study was 1 h. Vancomycin serum concentrations were obtained from patient’s therapeutic drug monitoring data, most of which were steady state (>4 doses) trough concentrations. The blood samples were anticoagulated by Ethylene Diamine Tetraacetic Acid, centrifuged at 5,000 rpm for 3 min and analyzed by chemiluminescence immunoassay (ADVIA Centaur® XP, Siemens). Sample calibration and quality control were carried out in accordance with the manufacturer’s instructions and the calibration range was 0.67–90 mg/L.
In this study, nonlinear mixed effects modeling (NLME) method was used to construct the PPK model. Pharmacokinetic parameters and the variability were assessed using the first-order conditional estimation with extended least square method (FOCE-ELS) by using the Phoenix® NLME software (version 8.3; Certara, St. Louis, Missouri). Bootstrap and visual predictive check (VPC) were used to test the stability and predictive ability of the final model.
The one-compartment model with first-order elimination was used to describe the pharmacokinetic characteristics of vancomycin. The sparse trough concentration data led to the inaccurate estimation of the V. Therefore, the population typical value of V was fixed at 60.2 L according to a PPK model in Chinese neurosurgery adult patients ([Jing et al., 2020]).
Inter-individual variability (η) of PPK model was described by exponential random effect model in Eq. 1. Residual variability (ε) was described by combined (multiplicative and additive) error model in Eq. 2. The η was assumed to follow a normal distribution with a mean of zero and a variance of ω ^2. The ε was assumed to follow a normal distribution with a mean of zero and a variance of σ ^2. θi=θTV×e^ηi, (1) Cobs=Cpred+ε×1+(Cpred×σ1/σ2)^2 (2) where θ TV is the population typical value of pharmacokinetic parameters, θ i is the individual (i ^th) pharmacokinetic parameters. Cobs and Cpred respectively represent the measured concentration and predicted concentration of a patient; σ 1 represents the multiplicative σ, and σ 2 represents the standard deviation of ε.
Continuous covariates included age, height, BW, body mass index, serum creatinine (Scr), creatinine clearance (CLcr) and estimated glomerular filtration rate (eGFR). Categorical covariates included sex, RRT and concomitant drugs (mannitol, meropenem and diuretics). CLcr is calculated by the Cockcroft-Gault equation ([Cockcroft and Gault, 1976]). eGFR is calculated by the Chronic Kidney Disease Epidemiology Collaboration (CKD-EPI) equation ([Kong et al., 2013]). All continuous covariates are centered at their median values. The difference of the objective function value (OFV) was used to compare the models.
After the establishment of the base model, the effects of covariates on pharmacokinetic parameters were tested by forward addition and backward elimination under stepwise manner. In the forward addition, if the decrease of OFV was greater than 6.64 (p < 0.01, df = 1), the covariate was considered to have a significant influence on the model parameters.

[2] = ref Lin Wu et al., 2015; cited from earlier work
[3] = fixed, not estimated, ref Jing et al., 2020, cited from earlier work
[4] = ref Rybak, 2006, cited from earlier work
[5] = Therapeutic drug monitoring of vancomycin serum concentration (chemiluminescence immunoassay); assay type: in vivo, human; conditions: mostly steady state (>4 doses) trough, 895 observations from 560 patients, dose 951.19 ± 152.23 mg/time, SD
Protocol: Inclusion criteria were: 1) age ≥18 years; 2) therapeutic drug monitoring was performed during treatment and at least 1 vancomycin concentration was obtained. Exclusion criteria were: 1) pregnant women ([Lin et al., 2021]); 2) cystic fibrosis ([Jing et al., 2020]).
as §1

CN[C@H](CC(C)C)C(=O)N[C@H]1C(=O)N[C@@H](CC(N)=O)C(=O)N[C@H]2C(=O)N[C@H]3C(=O)N[C@H](C(=O)N[C@H](C(=O)O)c4cc(O)cc(O)c4-c4cc3ccc4O)[C@H](O)c3ccc(c(Cl)c3)Oc3cc2cc(c3O[C@@H]2O[C@H](CO)[C@@H](O)[C@H](O)[C@H]2O[C@H]2C[C@](C)(N)[C@H](O)[C@H](C)O2)Oc2ccc(cc2Cl)[C@H]1O [vancomycin, Vancomycin]
Mannitol on CL (L/h), final model, Estimate (%RSE) ([1]; A in e^A of the CL equation when co-medicated with mannitol, final model): 0.13 (17.85) L/h | Mannitol on CL (L/h), Bootstrap Median (%RSE) ([1]; A in e^A when co-medicated with mannitol, bootstrap, 5,000 data sets): 0.13 (17.72) L/h | CL (L/h), base model, Estimate (%RSE) ([1]; base model without covariates): 8.08 (1.93) L/h | CL (L/h), Bootstrap Median (%RSE) ([1]; bootstrap of final model, 5,000 data sets): 7.97 (2.24) L/h | BW on CL (L/h), final model, Estimate (%RSE) ([1]; exponent of (BW/70) in the CL equation, final model): 0.30 (20.19) L/h | BW on CL (L/h), Bootstrap Median (%RSE) ([1]; exponent of (BW/70), bootstrap, 5,000 data sets): 0.30 (19.91) L/h | eGFR on CL (L/h), Bootstrap Median (%RSE) ([1]; exponent of (eGFR/115.2), bootstrap, 5,000 data sets): 0.80 (4.39) L/h | CL (L/h), population typical value, final model, Estimate (%RSE) ([1]; final model, one-compartment, FOCE-ELS, 895 concentrations from 560 patients, iv infusion, covariates centred at eGFR 115.2, BW 70, no mannitol): 7.98 (1.90) L/h | increase in vancomycin CL when co-medicated with mannitol ([1]; final model, with versus without mannitol): 14% | typical value of vancomycin CL per body weight ([1]; this study, postoperative neurosurgical patients): 1.83 mL/min/kg | V in another eligible study [2]: 54 ± 17 L | V (L), base model ([3]; base model): 60.2 L | V (L), Bootstrap ([3]; bootstrap): 60.2 L | V (L), apparent distribution volume, final model ([3]; final model): 60.2 L | absorption by oral administration ([4]; oral): almost not absorbed | α half-life ([4]; patients with normal renal function, printed as 'approximately'): 0.5 to 1 h | terminal elimination half-life ([4]; patients with normal renal function): 3 to 9 h | protein binding rate ([4]; printed as 'about'): 10%–50% | share of vancomycin excreted in prototype through the kidney ([4]; within 24 h after administration): more than 80% | Concentration (mg/L), mean ± standard deviation [5]: 14.20 ± 7.36 mg/L
